Test results from patent US8287888B2, “Thermosensitive polyphosphazene-bioactive molecule conjugates, preparation method thereof and use thereof” (Korea Institute of Science and Technology, priority 2006, dated 2012).
Values after ≈ are worked out from the molar mass of the structure shown.

Tests used:
[1] = Sol-gel phase transition with change of temperature (Brookfield rheometer); format: physicochemical; settings: 10 wt % in phosphate buffered saline (pH 7.4)
Procedure: The poly(organophosphazene) conjugated with a drug or bioactivemolecules obtained in Examples 1 to 11 were respectively dissolved in phosphate buffered saline (pH 7.4) at 4° C. so as to make solutions with concentrations of 10 wt %. The solutions were put into a chamber of a Brookfield DV-III+ Rheometer equipped with a thermostatic bath (TC-501).

[2] = test system: human breast adenocarcinoma (MCF-7); assay: Anti-cancer activity in vitro, MTT; format: cell-based; settings: for IC50: Homo sapiens
Procedure: (§1) In order to find out anticancer activity in vitro of the poly(organophosphazene) conjugated with anti-cancer drug of the present invention, the trial as follows was performed about the human breast adenocarcinoma (MCF-7, the Korea Cell Line Bank) and the human cervix adenocarcinoma (Hela, the Korea Cell Line Bank).
(§2) For the in vitro cell experiment, in order to measure the genesistasis concentration to 50% (IC50) toward the cancer cell of the poly(organophosphazene) conjugated with anticancer drug, the analytical method using 3-(4,5-dimethylthiazol-2-yl)-2,5-diphenyl-2H-tetrazolium bromide (MTT) was performed [T. Mosmann, J. Immunol. Method, 65, (1985) 55].
(§3) The materials for to measuring were respectively melted in the DMSO (dimethylsulfoxide) of the small amount, and they were diluted to the distilled water with 200 times. The materials solution were added to the cancer cell that is MCF-7(the Korea Cell Line Bank) and Hela (the Korea Cell Line Bank). Then, they were added to 96-well microtiter plater to 1.0×10^4 cell/ml (the concentration of the cancer cell). And they were cultivated for 2, 3, 4 days, respectively, with 37° C. in 5% CO2 condition.
(§4) MTT solution (20 μl) was mixed the cultivated cell with, and they were more cultivated for 4 hours with 37° C. in 5% CO2 condition. After the upper culture medium of each cell was removed, DMSO (100 μl) was added to a well and they were shaken in the room temperature to the plate shaker with for 20 minutes, thereby dissolving the formazan crystal generated by reducing of MTT.

[3] = test system: human cervix adenocarcinoma (Hela); assay: Anti-cancer activity in vitro, MTT; format: cell-based; settings: for IC50: Homo sapiens, HeLa
Procedure: as §1, §2, §3, §4

[4] = test system: stomach cancer, SNU-601; assay: Anti-cancer activity in vivo of hydrogel conjugated with paclitaxel; parameters: species or system nude mouse (Balb/C)
Procedure: The anti-cancer activity in vivo of the poly(organophosphazene) hydrogel conjugated with paclitaxel prepared by the method of Example 1 was determined by the following method.
A nude mouse (OrientalBio, Balb/C, female of 5-weeks old, 20 g) was used as an animal model for animal experimentation for an in vivo test. Cells of stomach cancer, SNU-601 (1×10^7 cells, 0.2 ml, the Korean Cell Line Bank), were injected into the dorsum of the mouse. A polymer solution containing the 10 wt % poly(organophosphazene)-paclitaxel conjugate of Example 1 in phosphate buffered saline (pH 7.4) was prepared. 0.1 ml and 0.2 ml of the solution were respectively injected into the cancer cells, and the change in the size of the cells was measured.
When the solution is injected in an amount as much as 0.1 ml, the amount of paclitaxel injected is 10 mg per 1 kg of the mouse weight. When the solution is injected in an amount as much as 0.2 ml, the amount of paclitaxel injected is […] per 1 kg of the mouse weight.
As the control group, the magnitude transition of the cancer cell into which paclitaxel was injected in the amount of 60 mg per 1 kg of the mouse weight and that of the cancer cell into which saline was administered instead of the anti-cancer drug were measured respectively. The number of mouse used was 10 heads respectively.

[5] = test system: Stomach cancer cells, SNU-601; assay: Anti-cancer activity in vivo of hydrogel conjugated with doxorubicin; parameters: species or system nude mouse (Balb/C)
Procedure: The anti-cancer activity in vivo of the poly(organophosphazene) hydrogel conjugated with doxorubicin prepared by the method of Example 5 was determined by the following method.
A nude mouse (OrientalBio, Balb/C, female of 5-weeks old, 20 g) was used as an animal model for animal experimentation for an in vivo test. Stomach cancer cells, SNU-601 (1×10^7 cells, 0.2 ml, the Korean Cell Line Bank), were injected into the dorsum of the mouse. A polymer solution containing the 10 wt % poly(organophosphazene)-doxorubicin conjugate of Example 5 in phosphate buffered saline (pH 7.4) was prepared. 0.1 ml and 0.2 ml of the solution was respectively injected into the cancer cells, and the change in the size of the cancer cells was measured.
When the solution is injected in an amount as much as 0.1 ml, the amount of doxorubicin injected is 30 mg per 1 kg of the mouse weight. When the solution is injected in an amount as much as 0.2 ml, the amount of doxorubicin injected is 60 mg per 1 kg of the mouse weight.
As the control group, the magnitude transition of the cancer cell into which doxorubicin was injected in the amount of 30 mg per 1 kg of the mouse weight and that to which saline is administered instead of the anti-cancer drug were measured respectively. The number of mouse used was 10 heads respectively.

poly[(isoleucineethylester)(aminomethoxypolyethyleneglycol 750)(glycylglycine)(glycylglycyldoxorubicin)phosphazene] [Example 6]
Gel solidity (maximum viscosity of the polymer solution) [1]: 313 Pa · s | Max. gelling temp. (temperature where the viscosity of the polymer solution reaches the maximum point) [1]: 46 °C

CC(=O)O[C@H]1C(=O)[C@@]2(C)[C@H]([C@H](OC(=O)c3ccccc3)[C@]3(O)C[C@H](OC(=O)[C@H](O)[C@@H](NC(=O)c4ccccc4)c4ccccc4)C(C)=C1C3(C)C)[C@]1(OC(C)=O)CO[C@@H]1C[C@@H]2O [paclitaxel, reference compound]
IC50 ([2]; MCF7, MCF-7, 2nd day): 0.022 mg/L (≈ 0.0258 µM) | IC50 ([2]; MCF7, MCF-7, 3rd day): 0.006 mg/L (≈ 0.00703 µM) | IC50 ([2]; MCF7, MCF-7, 4th day): 0.002 mg/L (≈ 0.00234 µM) | IC50 ([3]; 2nd day): 0.083 mg/L (≈ 0.0972 µM) | IC50 ([3]; 3rd day): 0.021 mg/L (≈ 0.0246 µM) | IC50 ([3]; 4th day): 0.014 mg/L (≈ 0.0164 µM) | mice died due to toxicity ([4]; 60 mg/kg, after 10 days, 10 mice per group): 8 mouse heads

poly[(isoleucineethylester)(aminomethoxypolyethyleneglycol 550)(glycylglycine)(glycylglycylglycin-arginine-glycin-asparagine-cerinicacidpeptied)phosphazene] [Example 8]
Gel solidity (maximum viscosity of the polymer solution) [1]: 318 Pa · s | Max. gelling temp. (temperature where the viscosity of the polymer solution reaches the maximum point) [1]: 39 °C

poly[(isoleucineethylester)(aminomethoxypolyethyleneglycol 550)(glycylglycine)(glycylglycylglycin-arginine-glycin-asparagine-cerinicacidpeptied)phosphazene] [Example 7]
Gel solidity (maximum viscosity of the polymer solution) [1]: 145 Pa · s | Max. gelling temp. (temperature where the viscosity of the polymer solution reaches the maximum point) [1]: 42 °C

poly[(isoleucineethylester)(aminomethoxypolyethyleneglycol 550)(glycylglycine)(glycylglycylpaclitaxel)phosphazene] [Example 2]
Gel solidity (maximum viscosity of the polymer solution) [1]: 230 Pa · s | Max. gelling temp. (temperature where the viscosity of the polymer solution reaches the maximum point) [1]: 38 °C | Anti-cancer activity [IC50] ([2]; MCF-7, 2nd day): 0.027 mg/L | Anti-cancer activity [IC50] ([2]; MCF-7, 3rd day): 0.021 mg/L | Anti-cancer activity [IC50] ([2]; MCF-7, 4th day): 0.007 mg/L | Anti-cancer activity [IC50] ([3]; 2nd day): 0.082 mg/L | Anti-cancer activity [IC50] ([3]; 3rd day): 0.079 mg/L | Anti-cancer activity [IC50] ([3]; 4th day): 0.048 mg/L

poly[(isoleucineethylester)(aminomethoxypolyethyleneglycol 550)(glycylglycine)(glycylglycylglycylethylester)(glycylglycylglycin-arginine-glycin-asparagine-cerinicacidpeptied)phosphazene] [Example 10]
Gel solidity (maximum viscosity of the polymer solution) [1]: 238 Pa · s | Max. gelling temp. (temperature where the viscosity of the polymer solution reaches the maximum point) [1]: 42 °C

poly[(isoleucineethylester)(aminomethoxypolyethyleneglycol 550)(glycylglycine)(glycylglycyldoxorubicin)phosphazene] [Example 4]
Gel solidity (maximum viscosity of the polymer solution) [1]: 88 Pa · s | Max. gelling temp. (temperature where the viscosity of the polymer solution reaches the maximum point) [1]: 37 °C | Anti-cancer activity [IC50] ([2]; MCF-7, 2nd day): 2.829 mg/L | Anti-cancer activity [IC50] ([2]; MCF-7, 3rd day): 2.801 mg/L | Anti-cancer activity [IC50] ([2]; MCF-7, 4th day): 1.641 mg/L | Anti-cancer activity [IC50] ([3]; 2nd day): 1.425 mg/L | Anti-cancer activity [IC50] ([3]; 3rd day): 0.892 mg/L | Anti-cancer activity [IC50] ([3]; 4th day): 0.283 mg/L

poly[(isoleucineethylester)(aminomethoxypolyethyleneglycol 550)(glycylglycine)(glycylglycylpaclitaxel)phosphazene] [Example 1]
Gel solidity (maximum viscosity of the polymer solution) [1]: 128 Pa · s | Max. gelling temp. (temperature where the viscosity of the polymer solution reaches the maximum point) [1]: 40 °C | Anti-cancer activity [IC50] ([2]; MCF-7, 2nd day): 0.025 mg/L | Anti-cancer activity [IC50] ([2]; MCF-7, 3rd day): 0.018 mg/L | Anti-cancer activity [IC50] ([2]; MCF-7, 4th day): 0.003 mg/L | Anti-cancer activity [IC50] ([3]; 2nd day): 0.099 mg/L | Anti-cancer activity [IC50] ([3]; 3rd day): 0.057 mg/L | Anti-cancer activity [IC50] ([3]; 4th day): 0.022 mg/L | size of the cancer cells decreased to ([4]; 0.1 ml intratumoral (paclitaxel 10 mg/kg), after 26 days): 60% | size of the cancer cells decreased to ([4]; 0.1 ml intratumoral (paclitaxel 10 mg/kg), after 34 days): 57% | size of the cancer cells decreased to ([4]; 0.2 ml intratumoral (paclitaxel 30 mg/kg), after 26 days): 81% | size of the cancer cells decreased to ([4]; 0.2 ml intratumoral (paclitaxel 30 mg/kg), after 34 days): 81%

poly[(isoleucineethylester)(aminomethoxypolyethyleneglycol 550)(glycylglycine)(glycylglycin)(glycylglycylglycin-arginine-glycin-asparagine-cerinicacidpeptied)phosphazene] [Example 11]
Gel solidity (maximum viscosity of the polymer solution) [1]: 155 Pa · s | Max. gelling temp. (temperature where the viscosity of the polymer solution reaches the maximum point) [1]: 44 °C

COc1cccc2c1C(=O)c1c(O)c3c(c(O)c1C2=O)C[C@@](O)(C(=O)CO)C[C@@H]3O[C@H]1C[C@H](N)[C@H](O)[C@H](C)O1 [doxorubicin, reference compound]
IC50 ([2]; MCF7, MCF-7, 2nd day): 2.29 mg/L (≈ 4.22 µM) | IC50 ([2]; MCF7, MCF-7, 3rd day): 1.69 mg/L (≈ 3.11 µM) | IC50 ([2]; MCF7, MCF-7, 4th day): 1 mg/L (≈ 1.85 µM) | IC50 ([3]; 2nd day): 0.321 mg/L (≈ 0.591 µM) | IC50 ([3]; 3rd day): 0.692 mg/L (≈ 1.27 µM) | IC50 ([3]; 4th day): 0.19 mg/L (≈ 0.35 µM) | mortality due to toxicity ([5]; free doxorubicin 30 mg/kg, after 14 days, 10 mice per group): all of mouse died

poly[(isoleucineethylester)(aminomethoxypolyethyleneglycol 550)(glycylglycine)(glycylglycyldoxorubicin)phosphazene] [Example 5]
Gel solidity (maximum viscosity of the polymer solution) [1]: 1477 Pa · s | Max. gelling temp. (temperature where the viscosity of the polymer solution reaches the maximum point) [1]: 39 °C | size of the cancer cells decreased to ([5]; 0.1 ml intratumoral (doxorubicin 30 mg/kg), after 14 days): 68% | size of the cancer cells decreased to ([5]; 0.1 ml intratumoral (doxorubicin 30 mg/kg), after 26 days): 173% | size of the cancer cells decreased to ([5]; 0.1 ml intratumoral (doxorubicin 30 mg/kg), after 28 days): 168% | size of the cancer cells decreased to ([5]; 0.2 ml intratumoral (doxorubicin 60 mg/kg), after 14 days): 155% | size of the cancer cells decreased to ([5]; 0.2 ml intratumoral (doxorubicin 60 mg/kg), after 22 days): 195% | size of the cancer cells decreased to ([5]; 0.2 ml intratumoral (doxorubicin 60 mg/kg), after 28 days): 182% | mortality ([5]; doxorubicin concentration of 30 mg/kg as hydrogel, 10 mice per group): did not die | mortality ([5]; doxorubicin concentration of 60 mg/kg as hydrogel, 10 mice per group): did not die
